Target: T1, GTPase KRas [1-37] (Homo sapiens, UniProt G3V5T7)
T1 construct: 1-37
Experiment: Ras wild-type GTP-binding inhibitors, SAR follow-up, biochemical, pyrazoline analogs, multiplex bead flow cytometry (AID 2047)
Conditions: not given

T1 sequence (G3V5T7 whole entry): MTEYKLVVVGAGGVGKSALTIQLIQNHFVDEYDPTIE

Structure (SMILES)	EC50
Cc1onc(-c2ccccc2)c1-c1ccc(S(N)(=O)=O)cc1	> 30 µM
O=[N+]([O-])c1ccc([N+]2=N[C-](c3ccccc3)CC2c2ccccc2)cc1 (stereo unspecified)	> 30 µM
Brc1ccc(N2N=C(c3ccccc3)CC2c2ccccc2)cc1 (stereo unspecified)	> 30 µM
COc1ccccc1C1CC(c2ccccc2)=NN1c1ccccc1 (stereo unspecified)	> 30 µM
Clc1cccc(N2N=C(c3ccccc3)CC2c2ccccc2)c1 (stereo unspecified)	> 30 µM
Clc1ccc(N2N=C(c3ccccc3)CC2c2ccccc2)cc1 (stereo unspecified)	> 30 µM
CC(=O)Oc1ccc(C2=NN(c3ccccc3)C(c3ccccc3)C2)cc1 (stereo unspecified)	> 30 µM
O=C(O)c1ccc(N2N=C(c3ccccc3)CC2c2ccccc2)cc1 (stereo unspecified)	> 30 µM
O=S(=O)(c1ccc(N2N=C(c3ccccc3)CC2c2ccccc2)cc1)C(F)F (stereo unspecified)	> 30 µM
CCc1ccc(C2=NN(c3ccc(S(N)(=O)=O)cc3)C(c3ccc(F)cc3)C2)cc1 (stereo unspecified)	> 30 µM
CN(C)c1ccc(C2C[C-](c3ccccc3)N=[N+]2c2ccc([N+](=O)[O-])cc2)cc1 (stereo unspecified)	> 30 µM
COc1ccc(C2CC(c3ccc(F)cc3)=NN2c2cccc(F)c2)cc1OC (stereo unspecified)	> 30 µM
COc1ccc(C2CC(c3ccc(Cl)cc3)=NN2c2ccc(S(N)(=O)=O)cc2)cc1 (stereo unspecified)	> 30 µM
Cc1ccc(C2CC(c3ccccc3)=NN2c2ccc(S(N)(=O)=O)cc2)cc1 (stereo unspecified)	> 30 µM
Cc1cccc(C2CC(c3ccccc3)=NN2c2ccc(S(N)(=O)=O)cc2)c1 (stereo unspecified)	> 30 µM
COc1ccc(C2CC(c3ccccc3OC)=NN2c2ccc(S(N)(=O)=O)cc2)cc1 (stereo unspecified)	> 30 µM
COc1ccc(C2CC(c3ccc(C)cc3)=NN2c2ccc(S(N)(=O)=O)cc2)cc1 (stereo unspecified)	> 30 µM
COc1ccc(C2CC(c3cccc(C(F)(F)F)c3)=NN2c2ccc(S(N)(=O)=O)cc2)cc1 (stereo unspecified)	> 30 µM
COc1ccc(C2CC(c3cccc(N(C)C)c3)=NN2c2ccc(S(N)(=O)=O)cc2)cc1 (stereo unspecified)	> 30 µM
COc1ccc(C2CC(c3cccnc3)=NN2c2ccc(S(N)(=O)=O)cc2)cc1 (stereo unspecified)	> 30 µM
COc1ccc(C2CC(c3ccncc3)=NN2c2ccc(S(N)(=O)=O)cc2)cc1 (stereo unspecified)	> 30 µM

Structure (SMILES)	EC50
Fc1ccccc1C1CC(c2ccc(Br)cc2)=NN1c1ccc(Br)cc1 (stereo unspecified) [2,5-bis(4-bromophenyl)-3-(2-fluorophenyl)-3,4-dihydropyrazole]	> 30 µM
COc1ccc(C2CC(c3ccc(F)cc3)=NN2c2cc(Cl)ccc2Cl)cc1 (stereo unspecified) [2-(2,5-dichlorophenyl)-5-(4-fluorophenyl)-3-(4-methoxyphenyl)-3,4-dihydropyrazole]	> 30 µM
COc1ccc(C2=NN(c3ccc(Cl)c(Cl)c3)C(c3ccc(OC)cc3)C2)cc1 (stereo unspecified) [2-(3,4-dichlorophenyl)-3,5-bis(4-methoxyphenyl)-3,4-dihydropyrazole]	> 30 µM
Fc1ccc(C2=NN(c3cccc(Br)c3)C(c3ccccc3)C2)cc1 (stereo unspecified) [2-(3-bromophenyl)-5-(4-fluorophenyl)-3-phenyl-3,4-dihydropyrazole]	> 30 µM
COc1ccc(C2=NN(c3cccc(F)c3)C(c3ccc(OC)cc3)C2)cc1 (stereo unspecified) [2-(3-fluorophenyl)-3,5-bis(4-methoxyphenyl)-3,4-dihydropyrazole]	> 30 µM
COc1ccc(C2CC(c3ccccc3)=NN2c2ccc(Cl)c(C(=O)O)c2)cc1OC (stereo unspecified) [2-chloro-5-[3-(3,4-dimethoxyphenyl)-5-phenyl-3,4-dihydropyrazol-2-yl]benzoic acid]	> 30 µM
COc1ccc(C2=NN(c3cccc(F)c3)C(c3ccc(Cl)cc3)C2)cc1 (stereo unspecified) [3-(4-chlorophenyl)-2-(3-fluorophenyl)-5-(4-methoxyphenyl)-3,4-dihydropyrazole]	> 30 µM
COc1ccc(C2C[C-](c3ccccc3)N=[N+]2c2ccc([N+](=O)[O-])cc2)cc1 (stereo unspecified) [3-(4-methoxyphenyl)-2-(4-nitrophenyl)-5-phenyl-3,4-dihydropyrazole]	> 30 µM
COc1ccc(C2CC(c3ccccc3)=NN2c2cccc(S(N)(=O)=O)c2)cc1 (stereo unspecified) [3-[3-(4-methoxyphenyl)-5-phenyl-3,4-dihydropyrazol-2-yl]benzenesulfonamide]	> 30 µM
NS(=O)(=O)c1ccc(N2N=C(c3ccccc3)CC2c2ccccc2)cc1 (stereo unspecified) [4-(3,5-diphenyl-3,4-dihydropyrazol-2-yl)benzenesulfonamide]	> 30 µM
COc1ccc(C2=NN(c3ccc(S(N)(=O)=O)cc3)C(c3ccc(OC)cc3)C2)cc1 (stereo unspecified) [4-[3,5-bis(4-methoxyphenyl)-3,4-dihydropyrazol-2-yl]benzenesulfonamide]	> 30 µM
NS(=O)(=O)c1ccc(N2N=C(c3ccccc3)CC2c2ccccc2Br)cc1 (stereo unspecified) [4-[3-(2-bromophenyl)-5-phenyl-3,4-dihydropyrazol-2-yl]benzenesulfonamide]	> 30 µM
COc1ccccc1C1CC(c2ccccc2)=NN1c1ccc(S(N)(=O)=O)cc1 (stereo unspecified) [4-[3-(2-methoxyphenyl)-5-phenyl-3,4-dihydropyrazol-2-yl]benzenesulfonamide]	> 30 µM
COc1cccc(C2CC(c3ccccc3)=NN2c2ccc(S(N)(=O)=O)cc2)c1 (stereo unspecified) [4-[3-(3-methoxyphenyl)-5-phenyl-3,4-dihydropyrazol-2-yl]benzenesulfonamide]	> 30 µM
NS(=O)(=O)c1ccc(N2N=C(c3ccccc3)CC2c2ccc(Cl)cc2)cc1 (stereo unspecified) [4-[3-(4-chlorophenyl)-5-phenyl-3,4-dihydropyrazol-2-yl]benzenesulfonamide]	> 30 µM
COc1ccc(C2CC(c3ccc(C(F)(F)F)cc3)=NN2c2ccc(S(N)(=O)=O)cc2)cc1 (stereo unspecified) [4-[3-(4-methoxyphenyl)-5-[4-(trifluoromethyl)phenyl]-3,4-dihydropyrazol-2-yl]benzenesulfonamide]	> 30 µM
COc1ccc(C2CC(C)=NN2c2ccc(S(N)(=O)=O)cc2)cc1 (stereo unspecified) [4-[3-(4-methoxyphenyl)-5-methyl-3,4-dihydropyrazol-2-yl]benzenesulfonamide]	> 30 µM
COc1ccc(C2CC(c3ccsc3)=NN2c2ccc(S(N)(=O)=O)cc2)cc1 (stereo unspecified) [4-[3-(4-methoxyphenyl)-5-thiophen-3-yl-3,4-dihydropyrazol-2-yl]benzenesulfonamide]	> 30 µM
COc1ccc(C2CC(c3ccccc3Cl)=NN2c2ccc(S(N)(=O)=O)cc2)cc1 (stereo unspecified) [4-[5-(2-chlorophenyl)-3-(4-methoxyphenyl)-3,4-dihydropyrazol-2-yl]benzenesulfonamide]	> 30 µM
COc1ccc(C2CC(c3cccc(F)c3)=NN2c2ccc(S(N)(=O)=O)cc2)cc1 (stereo unspecified) [4-[5-(3-fluorophenyl)-3-(4-methoxyphenyl)-3,4-dihydropyrazol-2-yl]benzenesulfonamide]	> 30 µM
COc1ccc(C2CC(c3cccc(OC)c3)=NN2c2ccc(S(N)(=O)=O)cc2)cc1 (stereo unspecified) [4-[5-(3-methoxyphenyl)-3-(4-methoxyphenyl)-3,4-dihydropyrazol-2-yl]benzenesulfonamide]	> 30 µM

Structure (SMILES)	EC50
NS(=O)(=O)c1ccc(N2N=C(c3ccc(Br)cc3)CC2c2ccc(F)cc2)cc1 (stereo unspecified) [4-[5-(4-bromophenyl)-3-(4-fluorophenyl)-3,4-dihydropyrazol-2-yl]benzenesulfonamide]	> 30 µM
COc1ccc(-c2cc(-c3ccccc3)nn2-c2ccc(S(N)(=O)=O)cc2)cc1 [4-[5-(4-methoxyphenyl)-3-phenylpyrazol-1-yl]benzenesulfonamide]	> 30 µM
COc1ccc(C2CC(C3CCCCC3)=NN2c2ccc(S(N)(=O)=O)cc2)cc1 (stereo unspecified) [4-[5-cyclohexyl-3-(4-methoxyphenyl)-3,4-dihydropyrazol-2-yl]benzenesulfonamide]	> 30 µM
O=S(=O)(c1ccc(N2N=C(c3ccc(Br)cc3)CC2c2ccccc2)cc1)C(F)F (stereo unspecified) [5-(4-bromophenyl)-2-[4-(difluoromethylsulfonyl)phenyl]-3-phenyl-3,4-dihydropyrazole]	> 30 µM
FC(F)(F)c1ccccc1C1CC(c2ccc(Br)cc2)=NN1c1ccccc1 (stereo unspecified) [5-(4-bromophenyl)-2-phenyl-3-[2-(trifluoromethyl)phenyl]-3,4-dihydropyrazole]	> 30 µM
O=[N+]([O-])c1cccc(C2C[C-](c3ccc(F)cc3)N=[N+]2c2ccccc2)c1 (stereo unspecified) [5-(4-fluorophenyl)-3-(3-nitrophenyl)-2-phenyl-3,4-dihydropyrazole]	> 30 µM
Cc1ccc(-c2cc(C(F)(F)F)nn2-c2ccc(S(N)(=O)=O)cc2)cc1 [Celecoxib]	> 30 µM
COc1ccc(C2CC(c3ccc(N(C)C)cc3)=NN2c2ccc(S(N)(=O)=O)cc2)cc1 (stereo unspecified) [KUC103422N]	> 30 µM
COc1ccc(C2CC(c3cccs3)=NN2c2ccc(S(N)(=O)=O)cc2)cc1 (stereo unspecified) [KUC103438N]	> 30 µM
NS(=O)(=O)c1ccc(N2N=C(c3ccccc3)CC2c2ccccc2Cl)cc1 (stereo unspecified) [KUC103446N]	> 30 µM
COc1ccc(C2CC(C(C)(C)C)=NN2c2ccc(S(N)(=O)=O)cc2)cc1 (stereo unspecified) [KUC103450N]	> 30 µM
COc1ccc(C2CC(c3ccccc3C(F)(F)F)=NN2c2ccc(S(N)(=O)=O)cc2)cc1 (stereo unspecified) [KUC103474N]	> 30 µM
Cc1ccccc1N1N=C(c2ccccc2)CC1c1ccc(N(C)C)cc1 (stereo unspecified) [N,N-dimethyl-4-[2-(2-methylphenyl)-5-phenyl-3,4-dihydropyrazol-3-yl]aniline]	> 30 µM
COc1ccc(C2CC(c3ccccc3)=NN2c2ccc(S(N)(=O)=O)cc2)cc1OC (stereo unspecified) [UNM-0000305823]	> 30 µM
COc1ccc(C2CC(c3ccc(Br)cc3)=NN2c2ccccc2Cl)cc1 (stereo unspecified) [UNM-0000305832]	> 30 µM
COc1ccc(C2=NN(c3ccccc3)C(c3ccc(Cl)cc3)C2)cc1 (stereo unspecified) [UNM-0000305833]	> 30 µM
O=S(=O)(O)c1ccc(N2N=C(c3ccccc3)CC2c2ccccc2)cc1 (stereo unspecified) [UNM-0000305834]	> 30 µM
Cc1cccc(N2N=C(c3ccccc3)CC2c2ccccc2)c1 (stereo unspecified) [UNM-0000305835]	> 30 µM
O=[N+]([O-])c1ccc([N+]2=N[C-](c3ccccc3)CC2c2ccc(O)cc2)cc1 (stereo unspecified) [UNM-0000305838]	> 30 µM

Same assay, conditions: inactive by the depositor's call

Structure (SMILES)	EC50
COc1ccc(C2=NN(c3ccccc3)C(c3ccccc3C(F)(F)F)C2)cc1 (stereo unspecified)	17.7 µM
NS(=O)(=O)c1ccc(N2N=C(c3ccc(Cl)cc3)CC2c2ccccc2)cc1 (stereo unspecified)	0.096 µM
COc1ccc(C2CC(c3ccccc3)=NN2c2ccc(Cl)c(C(=O)O)c2)cc1 (stereo unspecified)	1.03 µM
CN(C)c1ccc(C2CC(c3ccccc3)=NN2c2ccccc2)cc1 (stereo unspecified) [4-(2,5-diphenyl-3,4-dihydropyrazol-3-yl)-N,N-dimethylaniline]	0.049 µM
COc1ccc(C2CC(c3ccc(F)cc3)=NN2c2ccc(S(N)(=O)=O)cc2)cc1 (stereo unspecified) [4-[5-(4-fluorophenyl)-3-(4-methoxyphenyl)-3,4-dihydropyrazol-2-yl]benzenesulfonamide]	0.028 µM

Reference: BindingDB's records for doi:10.7270/Q2KK9971 (Nmmlsc, 2009)
